Assays:
Assay type in all cases: physicochemical
Settings in all cases: room temperature
[1] = Sodium benzoate added to aqueous solvent solution until single phase observed (PPh)
Experimental: (§1) Aqueous solutions of dipropylene glycol n-butyl ether(DPnB), propylene glycol phenyl ether(PPh), and benzyl alcohol were prepared and sodium benzoate was added at room temperature to each solution until a single phase solution was observed.

[2] = Sodium benzoate added to aqueous solvent solution until single phase observed (benzyl alcohol)
Experimental: as §1

[3] = Sodium benzoate added to aqueous solvent solution until single phase observed (DPnB)
Experimental: as §1

O=C([O-])c1ccccc1.[Na+] [Na Benzoate, sodium benzoate]
Na Benzoate at which a single phase solution was observed ([1]; Water 43 wt %, PPh 43 wt %): 14 wt %
Na Benzoate at which a single phase solution was observed ([1]; Water 58 wt %, PPh 25 wt %): 17 wt %
Na Benzoate at which a single phase solution was observed ([1]; Water 63 wt %, PPh 16 wt %): 21 wt %
Na Benzoate at which a single phase solution was observed ([1]; Water 69 wt %, PPh 12 wt %): 19 wt %
Na Benzoate at which a single phase solution was observed ([1]; Water 74 wt %, PPh 8 wt %): 18 wt %
Na Benzoate at which a single phase solution was observed ([1]; Water 79 wt %, PPh 4 wt %): 17 wt %
Na Benzoate at which a single phase solution was observed ([1]; Water 83 wt %, PPh 2 wt %): 15 wt %
Na Benzoate at which a single phase solution was observed ([1]; Water 93 wt %, PPh 1 wt %): 6 wt %
Na Benzoate at which a single phase solution was observed ([2]; Water 44 wt %, Benzyl Alcohol 44 wt %): 12 wt %
Na Benzoate at which a single phase solution was observed ([2]; Water 61 wt %, Benzyl Alcohol 26 wt %): 13 wt %
Na Benzoate at which a single phase solution was observed ([2]; Water 69 wt %, Benzyl Alcohol 17 wt %): 14 wt %
Na Benzoate at which a single phase solution was observed ([2]; Water 74 wt %, Benzyl Alcohol 13 wt %): 13 wt %
Na Benzoate at which a single phase solution was observed ([2]; Water 78 wt %, Benzyl Alcohol 9 wt %): 13 wt %
Na Benzoate at which a single phase solution was observed ([2]; Water 85 wt %, Benzyl Alcohol 4 wt %): 11 wt %
Na Benzoate at which a single phase solution was observed ([2]; Water 98 wt %, Benzyl Alcohol 2 wt %): 0 wt %
Na Benzoate at which a single phase solution was observed ([2]; Water 99 wt %, Benzyl Alcohol 1 wt %): 0 wt %
Na Benzoate at which a single phase solution was observed ([3]; Water 45 wt %, DPnB 45 wt %): 10 wt %
Na Benzoate at which a single phase solution was observed ([3]; Water 62 wt %, DPnB 26 wt %): 12 wt %
Na Benzoate at which a single phase solution was observed ([3]; Water 70 wt %, DPnB 18 wt %): 12 wt %
Na Benzoate at which a single phase solution was observed ([3]; Water 75 wt %, DPnB 13 wt %): 12 wt %
Na Benzoate at which a single phase solution was observed ([3]; Water 79 wt %, DPnB 9 wt %): 12 wt %
Na Benzoate at which a single phase solution was observed ([3]; Water 86 wt %, DPnB 4 wt %): 10 wt %
Na Benzoate at which a single phase solution was observed ([3]; Water 98 wt %, DPnB 2 wt %): 0 wt %
Na Benzoate at which a single phase solution was observed ([3]; Water 99 wt %, DPnB 1 wt %): 0 wt %

From patent US6916773B2, “Non-surfactant solubilizing agent” (Ecolab, Inc., priority 2002, dated 2005)
